The values that follow come from patent US7582312B2, “Methods to produce lung surfactant formulations via lyophilization and formulations and uses thereof” (Discovery Laboratories, Inc., priority 2004, dated 2009).

Series [1] in a line: Individual component solubilities in t-butanol/water solutions (HPLC). As to conditions: about 37° C.; for solubility at 30 min: 37 °C, thermodynamic from solid.
Method: (§1) Aliquots of each lipid and peptide were accurately weighed into 1.5 ml Eppendorf tubes. […] To each tube 0.2 ml of solvent was added. Each tube was vortexed and then bath sonicated for several minutes to facilitate dissolution. Samples were then placed in a 37° C. bath for approximately 30 minutes and then removed and placed on the counter for up to 30 minutes. […] Three independent Eppendorf tubes were prepared and tested for each solute-solvent combination. Visual observations were made of each tube as to whether they appeared a) clear (i.e., apparently fully soluble), b) to contain non-dissolved material, or c) indeterminate. Small aliquots of each tube were then taken, diluted in the HPLC running buffer, and analyzed by HPLC. HPLC was performed using a CIS column by established methods.
Series [2] can be described thus: Achievable dissolution concentrations of components in 60% TBA cosolvent without NaCl. As to conditions: for Measured Concentration, 1: replicate 1; for Measured Concentration, 2: replicate 2; for Measured Concentration, 3: replicate 3; for Measured Concentration, AVG: room temperature, individual component.
A short description of series [3]: physchem. As to conditions: 37 °C, aqueous with cosolvent or surfactant or cyclodextrin, thermodynamic from solid.
Method: as §1
Where [4] appears, read: 50% t-butanol in water, aqueous with cosolvent or surfactant or cyclodextrin.
The mark [5] stands for this setting: 80% t-butanol in water, organic solvent or mixture.
Where [6] appears, read: 90% t-butanol in water, organic solvent or mixture.
Setting [7] is: 95% t-butanol in water, organic solvent or mixture.
Setting [8] is: 100% t-butanol, organic solvent or mixture.

In brackets after ≈: the same amount, converted by molar mass. Where no end group is shown, it is not given here.

`CCCCCCCCCCCCCCCCO` [CA, cetyl alcohol]: the solubility at 30 min in series [1] (setting [4]) was 14 mg/mL (≈ 57.7 mM); in series [1] (setting [5]), greater than 224 mg/mL; in series [1] (setting [6]), greater than 229 mg/mL; in series [1] (setting [7]), greater than 251 mg/mL; in series [1] (setting [8]), greater than 270 mg/mL.

Turning to `CCCCCCCCCCCCCCCC(=O)OC[C@H](COP(=O)([O-])OCC[N+](C)(C)C)OC(=O)CCCCCCCCCCCCCCC` [DPPC, dipalmitoyl phosphatidylcholine], the solubility at 30 min in series [1] (setting [4]) is greater than 49 mg/mL; in series [1] (setting [5]), greater than 133 mg/mL; in series [1] (setting [6]), greater than 145 mg/mL; in series [1] (setting [7]), greater than 150 mg/mL; in series [1] (setting [8]), greater than 150 mg/mL. Moreover, in series [2], the “Measured Concentration, 1” value was 34.8 mg/mL. In series [2], the “Measured Concentration, 2” value was determined as 35.0 mg/mL. The “Measured Concentration, 3” value in series [2] is 35.2 mg/mL. For the same compound, the “Measured Concentration, AVG” value in series [2] turned out to be 35.0 mg/mL.

Take `CCCCCCCC/C=C\CCCCCCCC(=O)O[C@H](COC(=O)CCCCCCCCCCCCCCC)COP(=O)(O)OCC(O)CO` (some centres unmarked) [POPG, palmitoyloleoyl phosphatidylglycerol]: the Solubility is greater than 47 mg/mL in series [1] (50% t-butanol in water); greater than 119 mg/mL in series [1] (80% t-butanol in water); greater than 160 mg/mL in series [1] (90% t-butanol in water); 34 mg/mL (≈ 45.4 mM) in series [1] (95% t-butanol in water); 20 mg/mL (≈ 26.7 mM) in series [1] (97.5% t-butanol in water); less than 5 mg/mL in series [1] (99% t-butanol in water). In series [1] (100% t-butanol), the Solubility was less than 5 mg/mL. For the same compound, the “Measured Concentration, 1” value in series [2] is 298.4 mg/mL. Also, the “Measured Concentration, 2” value in series [2] was found to be 283.7 mg/mL. Besides, the “Measured Concentration, 3” value in series [2] was found to be 290.6 mg/mL. Besides, in series [2], the “Measured Concentration, AVG” value worked out at 290.9 mg/mL.

In turn, KLLLLKLLLLKLLLLKLLLLK [KL4] yielded a Solubility in series [3] greater than 67 mg/mL.
